These results are taken from the NIST ThermoML archive (doi:10.1021/je040002p).

What is called refractive index is a measure of how strongly the sample bends light. Broadly, the mass density is the mass of a sample divided by its volume.

Data set [1] can be described thus: refractive index (Na D-line) (dimensionless). The following applies: 101.33 kPa, Liquid, Standard Abbe refractometry.
For data set [2] the following is noted: Liquid; for mass density: 101.33 kPa, Pycnometric method.

± gives the expanded uncertainty stated by the source.

As for `CCCCC(C)=O` [2-hexanone], in data set [1] (293.15 K), the refractive index stood at 1.4008 ± 0.0007. In addition, the mass density in data set [2] (293.15 K) is 811.2 ± 0.8 kg/m3. For the same compound, in data set [2], the Normal boiling temperature turned out to be 127.54 ± 0.13 °C.

On to `CCCCCCCCC` [nonane], for which, in data set [1] (293.15 K), the refractive index amounted to 1.4055 ± 0.0007. Moreover, in data set [2] (293.15 K), the mass density is given as 717.6 ± 0.7 kg/m3. Also, the Normal boiling temperature in data set [2] amounted to 150.82 ± 0.14 °C.

On to `OC1CCCCC1` [cyclohexanol], for which the refractive index in data set [1] (303.15 K) was determined as 1.4621 ± 0.0007. The mass density in data set [2] (303.15 K) amounted to 941.6 ± 0.9 kg/m3. For the same compound, the Normal boiling temperature in data set [2] amounted to 160.74 ± 0.14 °C.
